Measurements as given in PMC11078216, “Discovery of potent and selective activity-based probes (ABPs) for the deubiquitinating enzyme USP30” (RSC Chemical Biology, 2024).
Values belong to the compound of their own block, whether it stands above or below them.

Molecular target: T1, RTN1 (Homo sapiens, UniProt Q16799)
T1 construct: endogenous in cells; host or cells: HEK293T
T1 sequence (Q16799 1-776): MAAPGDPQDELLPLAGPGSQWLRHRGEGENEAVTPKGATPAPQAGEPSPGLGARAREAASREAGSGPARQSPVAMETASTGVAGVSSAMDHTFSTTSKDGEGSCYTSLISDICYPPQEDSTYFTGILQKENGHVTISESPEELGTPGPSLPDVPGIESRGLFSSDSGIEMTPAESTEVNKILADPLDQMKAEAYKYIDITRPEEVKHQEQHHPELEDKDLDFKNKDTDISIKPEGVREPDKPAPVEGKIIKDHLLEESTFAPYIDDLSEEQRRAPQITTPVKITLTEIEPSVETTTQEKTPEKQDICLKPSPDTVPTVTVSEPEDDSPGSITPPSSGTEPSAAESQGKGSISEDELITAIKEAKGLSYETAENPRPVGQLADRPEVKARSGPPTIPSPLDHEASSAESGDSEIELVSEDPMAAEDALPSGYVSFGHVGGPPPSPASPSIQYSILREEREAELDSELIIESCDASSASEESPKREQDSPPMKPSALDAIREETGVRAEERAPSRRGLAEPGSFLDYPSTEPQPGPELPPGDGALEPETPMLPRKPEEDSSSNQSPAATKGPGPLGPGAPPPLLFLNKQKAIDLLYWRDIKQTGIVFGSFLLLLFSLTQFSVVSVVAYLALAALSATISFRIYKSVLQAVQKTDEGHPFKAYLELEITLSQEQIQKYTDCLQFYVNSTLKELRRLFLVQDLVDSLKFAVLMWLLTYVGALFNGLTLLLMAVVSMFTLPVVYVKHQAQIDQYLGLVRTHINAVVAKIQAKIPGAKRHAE
Experiment: ABPP chemical proteomics (LC-MS/MS) in HEK293T cells
Assay type: cell-based
Description: To explore the selectivity of IMP-2587 and IMP-2586 across the whole proteome, we performed quantitative activity-based protein profiling (ABPP) in HEK293T cells following treatment with IMP-2587 or IMP-2586 (Fig. 3a). After ABP incubation, cells were lysed, and probe-labelled proteins were ligated to biotinylated capture reagents.[27] […] USP30 was outcompeted by corresponding parent inhibitors for each ABP (Fig. 5b and d and Tables S3 and S5, ESI ^†), confirming the high potency and rapid engagement of IMP-2587 and IMP-2586 in cells. […] DESI1 and DESI2 are small ubiquitin-related modifier (SUMO) proteases,[3,29–32] and IMP-2587 and IMP-2586 may offer a starting point for future development of DESI ABPs. […]
d) Live cell probe incubation, lysate click chemistry and precipitation 6-well HEK293T cells were incubated with media containing compounds ABP 2 and ABP 4 at indicated […]
The cells were washed with PBS and lysed with lysis buffer (50 μL (1% (v/v) Triton X-100, 0.1% (w/v) sodium dodecyl sulfate (SDS), EDTA-free complete protease inhibitor cocktail (1×, Roche) in PBS on ice for 10 min. The lysates were scraped and transferred to corresponding Lo-Bind Eppendorfs. Each lysate was sonicated for 1 minute, and the samples centrifuges at 5,000 x g at 4 °C for 5 minutes to pellet insoluble cellular debris. The supernatant was collected, and protein concentration was determined using the DC Protein Assay (Bio-Rad) as per manufacturer’s instructions, and normalised to lowest concentrated sample (e.g. 1 mg/mL, using lysis buffer). The following “click mixture” was prepared separately, preparing 6 μL for every 100 μL of […]
Capture reagent (AzRB/AzT for ABP 2, YnT/YnB for ABP 4 10 mM in DMSO, 1 vol; final concentration […]
CuSO4 (50 mM in water, 2 vol; final concentration in reaction 1 mM)
TCEP (50 mM in water, 2 vol; final concentration in reaction 1 mM)
TBTA (10 mM in DMSO, 1 vol; final concentration in reaction 100 µM)
The click mixture was vortexed and incubated at room temperature for 2 min before 6 μL of the mixture was added to every 100 μL of lysate. […]

SMILES: C#Cc1cccc(-c2cc(NC(=O)CC3CCN(C#N)C3)on2)c1 (stereo not drawn) [IMP-2587]
Difference (log2 fold change of enrichment) (IMP-2587 labelling vs DMSO, 30 nM, 10 min, HEK293T (Table S2, Fig.5a)): 1.77

Difference (log2 fold change of enrichment) (compound 1 out-competition with IMP-2587 labelling, HEK293T (Table S3, Fig.5b)): -0.69
SMILES: N#CN1CC[C@H](CC(=O)Nc2cc(-c3cccc(Cl)c3)no2)C1 [compound 1, reference compound]

SMILES: N#CN1CC[C@@H](NC(=O)c2cc(-c3ccccc3Oc3ccc(N=[N+]=[N-])cc3)n[nH]2)C1 [IMP-2586]
Difference (log2 fold change of enrichment) (IMP-2586 labelling vs DMSO, 30 nM, 10 min, HEK293T (Table S4, Fig.5c)): 1.53
